# Results taken from patent US20140161767A1, “FOLLICLE-STIMULATING HORMONE (FSH)/LYTIC DOMAIN FUSION CONSTRUCTS AND METHODS OF MAKING AND USING SAME” (BOARD OF SUPERVISORS OF LOUISIANA STATE UNIVERSITY AND …, priority 2012, published 2014).
# Columns and labels:
# MDA-MB-231 = experiment: Cell viability after 4 hours (Cell Titer Glo), MDA-MB-231; type: cell-based, human; conditions: 4 h incubation; read-out: Activities [μM] MDA-MB-231 (p47)
# Method: (§1) Human ovarian cancer cell lines OVCAR-3 (p 41), SKOV-3 (p 35) and the human uterine sarcoma cell line MES-SA-Dx5 (p 61) (multi-drug resistant clone), the human pancreatic cancer cell line Panc-1 (passage number 18), and human triple negative breast cancer cell line MDA-MB-231 (passage number 47) were grown in ATCC recommended medium, 10% fetal bovine serum, 100 IU/ml penicillin, 100 microg/ml streptomycin. Cells were typically seeded (2,000 cells per well) into 96 well plates and media was replaced after 48 hours of incubation. […] Each Phor-18-hFSH-β81-89 conjugate provided in lyophilized form was dissolved in saline and added to cells. The duration of incubation was 4 hours at 37° C. Cell viability was assessed after 4 hours using a luminometric assays (Promega, Cell Titer Glo, G755B, lot #00000031421). Controls contained saline or 0.1% triton as reference for 0 and 100% cell death, respectively.
# (§2) Data were processed and analyzed using GraphPad Prism version 5.00 for Windows, GraphPad Software, San Diego Calif. USA, www.graphpad.com”. Statistical analysis for significance was determined by a two-tailed Student's T-test. Each study was conducted to achieve an N of at least 6.
# (§3) In vitro activities were expressed as IC50 values for each cell line, time point and compound tested that were calculated using the Hill equation (Graph Pad Prizm software).
# SKOV-3 = experiment: Cell viability after 4 hours (Cell Titer Glo), SKOV-3; type: cell-based, human; conditions: 4 h incubation; read-out: Activities [μM] SKOV-3 (p35)
# Method: as §1, §2, §3
# MDA-MB-435 = experiment: Fluorescence microscopy, mechanism of action in MDA-MB-435 cells; type: cell-based, human; conditions: 10 μM, 5 minutes exposure
# Method: In brief, human breast cancer cells (MDA-MB-435, passage #252) were seeded onto culture dishes. The following markers were introduced prior to adding EP100: DRAQ5™ (Alexis Corporation)—blue—was used for staining of the nucleus and MnoTracker® Red CMXRos (M7512) (Molecular Probes, Inc. OR) were applied for visualizing intact mitochondria. Cell membranes were stained with wheat germ alexa fluor green conjugates (Molecular Probes, Inc. OR).
# Cells were loaded first with Mitotracker dye, according to the manufacturers recommendation. […] Culture dishes with saline only served as controls. The supernatant was removed and the remaining cells prepared for fluorescence microscopy imaging.
# [1] = test system: MDA-MB-435S.luc xenograft; experiment: Mouse xenograft model of breast cancer, LHRH fusion constructs; type: in vivo, mice
# Method: For LHRH fusion constructs, the mouse xenograft model for breast cancer was used. In brief, Nu/Nu female mice, outbred strain, age 5 weeks (Charles River) were injected subcutaneously with a MDA-MB-435S.luc/Matrigel suspension (1×10^6 cells). Treatment was started on day 21 after tumor cell injection and continued on day 26 and 29. The doses for weekly fusion construct injections were 2, 0.2 and 0.02 mg/kg body weight, given as a bolus single injection. All mice were necropsied 34 days after tumor cell injection—baseline values for tumor weights were obtained by sacrificing 8 mice at treatment start. Primary tumors, liver, kidney, pancreas, heart, lung, and spleen were collected and prepared for histological evaluation in formalin. Tumor weights were recorded at necropsy, part of the tumors were frozen at −80° C. for luciferase assay determination.
# Characteristics of tumors at necropsy are summarized in FIG. 10: (A) tumor weight, (B) changes of tumor weights compared to baseline, (C) total number of live tumor cells, (D) changes of total live tumor cells compared to baseline, and (E) bodyweights at baseline and necropsy. Viability of tumor cells was determined at the end of the study when tumors were measured for luciferase activity. Treatment efficacy was calculated as difference between measurements at the beginning of treatment compared to the measurement at the end of study (FIGS. 10B and 10D).
# MDA-MB-435S.luc cells = experiment: Cell toxicity screening (MTT assay) in MDA-MB-435S.luc breast cancer cells; type: cell-based, human
# Excerpt: This example describes screening for cell toxicity (IC50) and hemolytic activity using a human breast cancer cell line.
# Eighteen βCG-ala and eight LHRH conjugated fusion constructs were studied and compared to Phor21-βCG-ala and unconjugated Phor21 and Phor 18 (338913)=CLIP71 peptides. The human breast cancer cell line MDA-MB-435S.luc, which over expresses chorionic gonadotrophin (CG) and luteinizing hormone-releasing hormone (LHRH) receptors, was used to screen at passage numbers 248-252. The MDA-MB-435S.luc cell line was constructed from the MDA-MB-435S cell line obtained from the American Type Cell Culture Collection by stable transfection with the plasmid PRC/CMV-luc containing the Photinus pyralis luciferase gene and an […] by lipofection. The stably transfected cell line was selected using G418 and the clones with the highest expression for the luciferase gene were tested for their LH and LHRH receptor expression.
# MDA-MB-435S.luc cells were grown in Leibovitz's L 15 medium, 10% fetal bovine serum, 0.01 mg/ml bovine insulin, 100 IU/ml penicillin, 100 microg/ml streptomycin. The cells were cultured in tight closed flasks. […]
# Data were processed and analyzed using Graph Pad Prizm 4™ software (Graph Pad Prizm, Inc). Statistical analysis for significance was determined by a two-tailed Student's T-test. […]
# MDA-MB-435S xenograft = experiment: MDA-MB-435S xenograft, multiple dose regimen; type: in vivo, mice; conditions: 0.002 and 0.2 mg/kg
# Method: In order to determine the minimal effective dose necessary to reduce MDA-MB-435S xenograft weights in a multiple dose regimen, Nu/Nu female mice, outbred strain, age 8 weeks (Charles River), were injected (s.c.) into the interscapular region with a MDA-MB-435S (passage #253)/Matrigel suspension (2×10^6 cells/mouse) as previously described above. […] The doses were given as a single bolus intravenous injection via lateral tail vein on days 15, 16, 17, 20, 21, 22, 23, 27, 28, 29, 30, 33, 34, 35, 36, 37, 38, 40, 41, 42 after tumor cell inoculation. Saline injections served as control groups.
# Each treatment group consisted of 16 mice. During the entire study tumor volumes were recorded twice weekly. Final necropsy was conducted on day 45 after tumor cell injection. […] due to occlusion of the tail vein in most mice. At study endpoint body weight, tumor weights were determined and fixed in phosphate buffered 10% formalin.
Substance,IC50 (MDA-MB-231) [µM],IC50 (SKOV-3) [µM],Plasma membrane (fluorescence microscopy) (MDA-MB-435),"Concentrations resulting in tumor weights similar to baseline ([1]; mouse, in vivo) [mg/kg]","In vivo tumor efficacy compared to reference Phor21-βCG-ala (tumor weight, viable tumor cells) ([1]; mouse, in vivo)",Tumor volume after 30 days compared to baseline ([1]; p<0.01),fold more potent (toxic) than Phor21-βCG-ala (MDA-MB-435S.luc cells) [fold],Tumor response (MDA-MB-435S xenograft),Histological examination of tumors (MDA-MB-435S xenograft; H&E)
KFAKFAK KFAKFAK KFAK [Phor18],18.9 ± 0.8,21.7 ± 3.6,–,–,–,–,–,–,–
KFAKFAKKFAKFAKKFAKQHWSYGLRPG [Phor18-LHRH],–,–,disintegration of the plasma membrane,0.2,Equally effective,smallest tumor volumes,2,tumor regression,eradication of tumor cells
